Results taken from patent US8680139B2 (Progenra, priority 2009, dated 2014).

Molecular target: T1, USP7 (Homo sapiens, UniProt Q93009)
T1 construct: full length human USP7 protein; made in house
Assay: USP7, Ub-PLA2 assay
Type: biochemical
Details: Ub-PLA2 / NBD C6-HPC fluorescence, 30 minute preincubation; read-out: EC50 for inhibition of USP7
Procedure: The purpose of this assay is to measure the inhibition of USP7 by various compounds of the invention synthesized according to the above-described methods. […] The vehicle control was 100% (v/v) DMSO. 1.6 μL aliquots of the diluted test compound and controls were dispensed into individual wells in a black walled 96 well plate. […] The data were normalized within a plate relative to the control wells using the equation % inhibition=(100−(((RFUcompound−RFUmean NEM) / (RFUmean DMSO−RFUmean NEM))×100)).

T1 sequence (Q93009 whole entry): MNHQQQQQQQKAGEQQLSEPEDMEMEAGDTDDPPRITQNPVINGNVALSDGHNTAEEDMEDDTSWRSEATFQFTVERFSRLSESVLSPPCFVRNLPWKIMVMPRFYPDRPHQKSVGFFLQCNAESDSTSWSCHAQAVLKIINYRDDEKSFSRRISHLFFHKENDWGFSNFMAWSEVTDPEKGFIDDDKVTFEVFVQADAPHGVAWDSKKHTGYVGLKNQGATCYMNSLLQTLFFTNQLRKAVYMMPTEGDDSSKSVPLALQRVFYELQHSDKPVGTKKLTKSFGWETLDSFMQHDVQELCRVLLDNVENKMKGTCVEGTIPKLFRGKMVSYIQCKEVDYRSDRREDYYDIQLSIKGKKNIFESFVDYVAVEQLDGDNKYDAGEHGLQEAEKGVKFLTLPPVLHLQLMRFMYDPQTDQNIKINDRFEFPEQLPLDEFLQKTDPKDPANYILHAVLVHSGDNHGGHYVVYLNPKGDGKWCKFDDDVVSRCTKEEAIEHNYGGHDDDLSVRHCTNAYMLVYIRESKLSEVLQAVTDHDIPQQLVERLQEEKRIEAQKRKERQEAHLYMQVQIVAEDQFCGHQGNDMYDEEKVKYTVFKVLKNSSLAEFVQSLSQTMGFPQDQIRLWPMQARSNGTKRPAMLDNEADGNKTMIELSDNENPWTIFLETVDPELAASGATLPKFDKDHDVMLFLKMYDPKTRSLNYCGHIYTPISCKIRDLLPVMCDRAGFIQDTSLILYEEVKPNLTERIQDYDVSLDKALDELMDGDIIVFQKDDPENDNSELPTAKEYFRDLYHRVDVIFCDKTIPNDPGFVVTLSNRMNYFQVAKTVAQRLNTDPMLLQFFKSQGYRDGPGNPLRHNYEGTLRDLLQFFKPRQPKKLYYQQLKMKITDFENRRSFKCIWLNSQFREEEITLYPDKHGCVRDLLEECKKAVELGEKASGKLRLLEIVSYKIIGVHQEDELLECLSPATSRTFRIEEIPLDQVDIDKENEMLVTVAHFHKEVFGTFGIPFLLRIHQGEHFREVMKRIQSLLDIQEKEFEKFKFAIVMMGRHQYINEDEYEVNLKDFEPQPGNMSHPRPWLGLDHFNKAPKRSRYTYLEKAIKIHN

Structure (SMILES)	EC50
CC(C)(C)OC(=O)CNC(=O)c1cc([N+](=O)[O-])c(Sc2c(Cl)cncc2Cl)s1 [Example 62, tert-butyl 2-(5-((3,5-dichloropyridin-4-yl)thio)-4-nitrothiophene-2-carboxamido)acetate]	1 to 10 µM
O=C(NCc1ccc(-c2ccccc2)cc1)c1cc([N+](=O)[O-])c(Sc2c(Cl)cncc2Cl)s1 [Example 63, N-([1,1′-biphenyl]-4-ylmethyl)-5-((3,5-dichloropyridin-4-yl)thio)-4-nitrothiophene-2-carboxamide]	1 to 10 µM
CN1CCN(CCNC(=O)c2cc([N+](=O)[O-])c(Sc3c(Cl)cncc3Cl)s2)CC1 [Example 64, 5-((3,5-dichloropyridin-4-yl)thio)-N-(2-(4-methylpiperazin-1-yl)ethyl)-4-nitrothiophene-2-carboxamide]	1 to 10 µM
CN1CCN(CCCNC(=O)c2cc([N+](=O)[O-])c(Sc3c(Cl)cncc3Cl)s2)CC1 [Example 65]	1 to 10 µM
CN1CCN(C(=O)c2cc([N+](=O)[O-])c(Sc3c(Cl)cncc3Cl)s2)CC1 [Example 66, (5-((3,5-dichloropyridin-4-yl)thio)-4-nitrothiophen-2-yl)(4-methylpiperazin-1-yl)methanone]	1 to 10 µM
COc1cccc(CN(C)C(=O)c2cc([N+](=O)[O-])c(Sc3c(Cl)cncc3Cl)s2)c1 [Example 67, 5-((3,5-dichloropyridin-4-yl)thio)-N-(3-methoxybenzyl)-N-methyl-4-nitrothiophene-2-carboxamide]	1 to 10 µM
O=C(NCc1cccc(OC(F)(F)F)c1)c1cc([N+](=O)[O-])c(Sc2c(Cl)cncc2Cl)s1 [Example 68, 5-((3,5-dichloropyridin-4-yl)thio)-4-nitro-N-(3-(trifluoromethoxy)benzyl)thiophene-2-carboxamide]	1 to 10 µM
COc1cc(CNC(=O)c2cc([N+](=O)[O-])c(Sc3c(Cl)cncc3Cl)s2)cc(OC)c1 [Example 69, 5-((3,5-dichloropyridin-4-yl)thio)-N-(3,5-dimethoxybenzyl)-4-nitrothiophene-2-carboxamide]	1 to 10 µM
O=C(NCc1ccc2c(c1)CCO2)c1cc([N+](=O)[O-])c(Sc2c(Cl)cncc2Cl)s1 [Example 70, 5-((3,5-dichloropyridin-4-yl)thio)-N-((2,3-dihydrobenzofuran-5-yl)methyl)-4-nitrothiophene-2-carboxamide]	1 to 10 µM
O=C(Nc1cc(-c2ccccc2)n[nH]1)c1cc([N+](=O)[O-])c(Sc2c(Cl)cncc2Cl)s1 [Example 71, 5-((3,5-dichloropyridin-4-yl)thio)-4-nitro-N-(3-phenyl-1H-pyrazol-5-yl)thiophene-2-carboxamide]	1 to 10 µM
O=C(c1cc([N+](=O)[O-])c(Sc2c(Cl)cncc2Cl)s1)N1CCC(CO)CC1 [Example 73, (5-((3,5-dichloropyridin-4-yl)thio)-4-nitrothiophen-2-yl)(4-(hydroxymethyl)piperidin-1-yl)methanone]	1 to 10 µM
O=C(c1cc([N+](=O)[O-])c(Sc2c(Cl)cncc2Cl)s1)N1CCC(F)CC1 [Example 74, (5-((3,5-dichloropyridin-4-yl)thio)-4-nitrothiophen-2-yl)(4-fluoropiperidin-1-yl)methanone]	1 to 10 µM
O=C(NC1C2CC3CC(C2)CC1C3)c1cc([N+](=O)[O-])c(Sc2c(Cl)cncc2Cl)s1 (stereo not drawn) [Example 75, N-((1r,3r,5r,7r)-adamantan-2-yl)-5-((3,5-dichloropyridin-4-yl)thio)-4-nitrothiophene-2-carboxamide]	1 to 10 µM
O=C(NC12CC3CC(CC(C3)C1)C2)c1cc([N+](=O)[O-])c(Sc2c(Cl)cncc2Cl)s1 [Example 76, N-((3s,5s,7s)-adamantan-1-yl)-5-((3,5-dichloropyridin-4-yl)thio)-4-nitrothiophene-2-carboxamide]	> 10 µM
O=C(NC1CCC(O)CC1)c1cc([N+](=O)[O-])c(Sc2c(Cl)cncc2Cl)s1 (stereo not drawn) [Example 77, 5-((3,5-dichloropyridin-4-yl)thio)-N-(4-hydroxycyclohexyl)-4-nitrothiophene-2-carboxamide]	1 to 10 µM
O=C(Nc1cccc2cccnc12)c1cc([N+](=O)[O-])c(Sc2c(Cl)cncc2Cl)s1 [Example 78, 5-((3,5-dichloropyridin-4-yl)thio)-4-nitro-N-(quinolin-8-yl)thiophene-2-carboxamide]	> 10 µM
CN1CCN(c2ccc(NC(=O)c3cc([N+](=O)[O-])c(Sc4c(Cl)cncc4Cl)s3)cc2)CC1 [Example 79, 5-((3,5-dichloropyridin-4-yl)thio)-N-(4-(4-methylpiperazin-1-yl)phenyl)-4-nitrothiophene-2-carboxamide]	1 to 10 µM
CC1(C)CCN(C(=O)c2cc([N+](=O)[O-])c(Sc3c(Cl)cncc3Cl)s2)CC1 [Example 80, (5-((3,5-dichloropyridin-4-yl)thio)-4-nitrothiophen-2-yl)(4,4-dimethylpiperidin-1-yl)methanone]	1 to 10 µM
CN1CCC(NC(=O)c2cc([N+](=O)[O-])c(Sc3ccc(Cl)cc3Cl)s2)CC1 [Example 81, 5-((2,4-dichlorophenyl)thio)-N-(1-methylpiperidin-4-yl)-4-nitrothiophene-2-carboxamide]	1 to 10 µM
O=C(NCCCN1CCCC1=O)c1cc([N+](=O)[O-])c(Sc2ccc(Cl)cc2Cl)s1 [Example 82, 5-((2,4-dichlorophenyl)thio)-4-nitro-N-(3-(2-oxopyrrolidin-1-yl)propyl)thiophene-2-carboxamide]	1 to 10 µM
O=C(c1cc([N+](=O)[O-])c(Sc2c(Cl)cncc2Cl)s1)N1CCCC(O)C1 (stereo not drawn) [Example 83, (5-((3,5-dichloropyridin-4-yl)thio)-4-nitrothiophen-2-yl)(3-hydroxypiperidin-1-yl)methanone]	1 to 10 µM
O=C(NCCC1CCN(Cc2ccccc2)C1)c1cc([N+](=O)[O-])c(Sc2c(Cl)cncc2Cl)s1 (stereo not drawn) [Example 84, N-(2-(1-benzylpyrrolidin-3-yl)ethyl)-5-((3,5-dichloropyridin-4-yl)thio)-4-nitrothiophene-2-carboxamide]	> 10 µM
CC(C)(C)OC(=O)N1CCC(NC(=O)c2cc([N+](=O)[O-])c(Sc3c(Cl)cncc3Cl)s2)CC1 [Example 85, tert-butyl 4-(5-((3,5-dichloropyridin-4-yl)thio)-4-nitrothiophene-2-carboxamido)piperidine-1-carboxylate]	1 to 10 µM
CN(C)c1ccc(NC(=O)c2cc([N+](=O)[O-])c(Sc3c(Cl)cncc3Cl)s2)cc1 [Example 86, 5-((3,5-dichloropyridin-4-yl)thio)-N-(4-(dimethylamino)phenyl)-4-nitrothiophene-2-carboxamide]	1 to 10 µM
Cc1csc(NC(=O)c2cc([N+](=O)[O-])c(Sc3c(Cl)cncc3Cl)s2)n1 [Example 87, 5-((3,5-dichloropyridin-4-yl)thio)-N-(4-methylthiazol-2-yl)-4-nitrothiophene-2-carboxamide]	1 to 10 µM
Cc1nc(NC(=O)c2cc([N+](=O)[O-])c(Sc3c(Cl)cncc3Cl)s2)sc1C [Example 88, 5-((3,5-dichloropyridin-4-yl)thio)-N-(4,5-dimethylthiazol-2-yl)-4-nitrothiophene-2-carboxamide]	1 to 10 µM
Cc1cnc(NC(=O)c2cc([N+](=O)[O-])c(Sc3c(Cl)cncc3Cl)s2)s1 [Example 89]	1 to 10 µM
